Values joined by “and” are separate entries in the source; they are usually repeats but may differ in a detail not shown here. Equal entries are not always repeated.

Experiment [1] has as its system PBMCs from asymptomatic HLA-A*02:01 Chagas disease patients. Briefly: HLA-A*02:01 restriction assay: peptide-pulsed K562-A2 cells as APC, IFN-γ secretion by patient PBMC. It is filed as cell-based, human. The following applies: range among patients with a positive response; K562-A2 pulsed with 1 mM peptide 1 h, 30 h co-culture; K562 level subtracted. The method, then:
TAP-deficient T2 cells were used for the HLA-A*02:01 binding assays and the K562-A2 cells for the HLA-A*02:01 restriction assay. The cells were cultured in complete RPMI medium supplemented with 10% of inactivated Fetal Calf Serum (iFCS), 2 mM glutamine, and 100 U/ml penicillin. K562-A2 cells, expressing the HLA-A*02:01 molecule were cultured in the presence of […] of G-418, as previously described. The T2 and K562-A2 cells were kindly provided by Dr. Pedro Romero (University of Lausanne) and by Dr Peter Ponsaerts (University of Antwerp, with the permission of Dr. Cedrik Britten from Johanes Gutenberg-University Mainz), respectively.
For the screening of the recognition of TcCA-2 epitopes by Chagas disease patients, 10 HLA-A*02:01 adult patients in the asymptomatic phase of the disease (IND) were enrolled. For cytotoxicity, functional activity determinations and phenotypic characterization another group of 19 HLA-A*02:01 adults Chagas disease patients and 9 healthy donors were analyzed. These patients were at the chronic stage of the disease and were considered to be at the asymptomatic phase (IND, n = 8) if there was no evidence of having cardiac or gastrointestinal disorders. Chronic Chagas cardiomyopathy patients (CCC, n = 11) were stratified into G1 to G3 stages following Kuschnir classification according to clinical criteria and radiological, electrocardiographic and echocardiography analyses. The number of patients was the one recommended by the Hospital Ethical Committee. […] The patients were enrolled in both studies (functional and phenotypic characterization, IND n = 6 and CCC n = 7) when the available number of purified PBMC (limited by the cellular number isolated from each subject) was enough for both analyses. Another four CCC patients had to be enrolled to perform the phenotypic analysis in order to reach statistical significance.
Cytokine secretion (IL-4, IL-10, IL-6, IFN-γ, TNF-α) was determined in the supernatants of PBMC from Chagas disease patients and healthy donors, after in vitro stimulation with 1 μM of each peptide for 30 h at 37°C in RPMI supplemented with 10% iFBS as explained before. The secretion profile was determined by using a bead-based multiplex immunoassay system (Bio-Plex, Bio-Rad), following the manufacturer's instructions. The response was considered positive if an increase in the secretion of cytokines was at least three folds higher than the secretion by un-stimulated cells (basal secretion level) and at least, 4 pg/mL for IL-4, 2 pg/mL for IL-10, 15 pg/mL for IL-6 and 5 pg/mL for IFN-γ and TNF-α. The positive control consisted of 50 ng/mL Phorbol 12 myristate 13-acetate (PMA) and 500 ng/mL ionomycin (Sigma). Cytokine levels were quantified in each sample by using the Bio-Plex Manager software 4.1 (Bio-Rad). […]

Experiment [2] shares this test system. Described as above. The following applies: K562-A2 cells pulsed with 1 mM peptide 1 h, co-cultured 30 h with PBMC of asymptomatic (IND) patients; positive = IFN-γ at least two folds un-stimulated cells. It is filed as cell-based, human.

Sequence AAAGDKLSL [TcCA-2_273-281] displayed an INF-γ secretion range in experiment [1] of 8.6 pg/mL. Besides, the “Chagas disease patient: patients with positive response in relation with the total number of patients per assay” value (from here on “Chagas disease patient: patients … per assay”) in experiment [2] was 1 out of 10 and 1/10.

The sequence ALQVTNHRYL [TcCA-2_657-666] returned an INF-γ secretion range in experiment [1] of 6.1 to 6.7 pg/mL. The “Chagas disease patient: patients … per assay” value in experiment [2] is “Two out of 9 and 2/9”.

On to ALRNLRVFL [TcCA-2_607-615], for which the INF-γ secretion range in experiment [1] was 6.4 to 15.1 pg/mL. Further, the “Chagas disease patient: patients … per assay” value in experiment [2] is 3 out of 9 and 3/9.

Consider TVFDASRSTV [TcCA-2_442-451], for which the INF-γ secretion range in experiment [1] fell in the range of 5.8 to 6.9 pg/mL. Moreover, the “Chagas disease patient: patients … per assay” value in experiment [2] was 2 out of 10 and 2/10.

Source of the values: PMC4376724, “Differential Phenotypic and Functional Profiles of TcCA-2 -Specific Cytotoxic CD8^+ T Cells in the Asymptomatic versus Cardiac Phase in Chagasic Patients” (PLoS ONE, 2015).
